# Values quoted from earlier work, collected in patent US20150196708A1, “SYSTEMS, METHODS AND COMPOSITIONS FOR IMPROVED TREATMENT OF ACIDOSIS” (The Regents of the University of California, priority 2012, published 2015).
# Key:
# patients with acidosis = details: literature (Cooper et al., 1990; Leung et al., 1994)
# [1] = room temperature; incorporates CO2(aq)/H2CO3(aq) equilibrium
SMILES,clinical benefit in human studies (patients with acidosis),Ka1 (deprotonation) [1]
"O=C([O-])O.[Na+] [bicarbonate, sodium bicarbonate]",no more beneficial effect than the administration of similar quantities of sodium chloride,–
O=C(O)O [carbonic acid],–,4.3×10^−7
